Measurements as given in patent US8492582B2, “N-acyl anthranilic acid derivative or salt thereof” (Toyama Chemical Co., Ltd., priority 2009, dated 2013).
Where a name gives a salt, the structure may show the parent alone. Read-outs that look alike come from different tables or passages of the source.

How the values were obtained:
[1] = target: T1, CYP2C9 (Homo sapiens, UniProt P11712); assay: Hepatic drug-metabolizing enzyme inhibitory activity in humans (CYP2C9); type: in vitro ADME; conditions: pooled human liver microsome, tolbutamide 200 μmol/L, 37° C., 30 minutes; 80a as free base; read-out: IC50 (CYP2C9, tolbutamide metabolite)
T1 construct: Pooled human liver microsome was used, and tolbutamide was used as a substrate; from tissue; host or cells: pooled human liver microsomes
Protocol: As test compounds, the compounds of Examples 80a, 83a, 108a, 117a, 123a, 128a, 139a, 142a, and 143a were used. Note that the compound of Example 80a was used in the form of free base.
Pooled human liver microsome was used, and tolbutamide was used as a substrate. The reaction was performed in a phosphate buffer (100 mmol/L, pH 7.4), and the final concentrations in the reaction system were adjusted to 0.5 mg/mL of human liver microsome protein, 200 μmol/L of the substrate, 1.55 mmol/L of oxidized nicotinamide adenine dinucleotide phosphate (NADP+), 3.3 mmol/L of glucose-6-phosphate, 3.3 mmol/L of magnesium chloride, and 0.4 Units/mL of glucose-6-phosphate dehydrogenase (G6PDH). The final concentration of each compound in the reaction solution was adjusted to 0.08 to 50 μg/mL. These reaction solutions were each subjected to reaction at 37° C. for 30 minutes. The reaction was terminated with an equal amount of acetonitrile. After centrifugation, the concentration of a tolbutamide metabolite in the supernatant was quantitatively measured by LC-MS/MS. The inhibitory activity was determined as IC50. As a positive control, sulfaphenazole was used.

[2] = test system: bleomycin-induced lung fibrosis (lung collagen amount); assay: Mouse bleomycin-induced lung fibrosis; type: in vivo, mice C57BL/6N; conditions: po, 672 h, read-out: lung collagen amount low compared with that of the control group
Protocol: The test was conducted using 8- to 10.5-week-old male mice C57BL/6N (Charles River Laboratories Japan, Inc.). Bleomycin (Nippon Kayaku Co., Ltd.) was dissolved in physiological saline in a concentration of 1.0 or 1.5 mg/mL, and 2 μL/g thereof was intranasally administered to each mouse to evoke lung fibrosis. A test compound was dissolved or suspended in a 10% aqueous solution of polyoxyethylene castor oil (trade name: Cremophor EL) or in water and orally administered in an amount of 10 mg/kg twice a day from the 14th to the 28th day from the evocation. In a control group, a 10% aqueous solution of polyoxyethylene castor oil or water was administered in the same manner. The lung was extracted from each mouse on the 28th day from the evocation, and collagen was quantitatively measured. The extracted lung was homogenized in a 0.5 mol/L aqueous solution of acetic acid containing a protease inhibitor cocktail (Complete, EDTA-free, Roche Diagnostics) in an amount of one tablet/50 mL, and water-soluble collagen was extracted in the presence of 10 mg/mL pepsin (Sigma) overnight. The amount of collagen was measured using a kit (Sircol Soluble Collagen assay kit, Biocolor).
The inhibition rate was determined by the following expression: Inhibition rate (%)=[1−(lung collagen amount in test compound administration group)/(lung collagen amount in control group)]×100

[3] = test system: type I collagen α1 chain mRNA in WI-38 cells; assay: Type I collagen α1 chain mRNA expression inhibition test; type: cell-based; conditions: Homo sapiens, read-out: Inhibition rate (%) at 10 μmol/L
Protocol: Human embryonic lung fibroblast cell line WI-38 cells were suspended in a Dulbecco's modified Eagle's medium containing 10% fetal calf serum, and 7.5×10^4 cells were inoculated on a 12-well plate and cultured for 3 days, or 1.5×10^5 cells were inoculated and cultured for 2 days. After the growth of the cells to a subconfluent state, the culture medium was changed to a Dulbecco's modified Eagle's medium containing 0.4% fetal calf serum and 50 μg/mL ascorbic acid, and the cells were further cultured for 24 hours. Then, a test compound was added thereto, and, one hour later, TGF-β1 was added at a final concentration of 1 ng/mL. Twenty-four hours after the addition, the total RNA was extracted from the cells using an RNA extraction kit (SV Total RNA Isolation System, Promega), and cDNA was synthesized using a reverse transcriptase (ReverTra Ace, TOYOBO). The expression level of the type I collagen al chain mRNA was analyzed with a real-time PCR instrument (ABI PRISM 7700 Sequence Detection System, Applied Biosystems) by a real-time PCR method using a premix reagent of real-time PCR (SYBR Premix Ex Taq or SYBR Premix Ex Taq II (Perfect Real Time), TaKaRa). A PCR reaction was conducted with diluted cDNA as a template, using primers specific for a type I collagen α1 chain gene or a GAPDH gene as an internal standard, and the reaction product was measured. The PCR reaction was conducted by incubation at 95° C. for 10 seconds and 45 cycles of denaturation at 95° C. for 5 seconds and annealing/extension at 60° C. for 30 seconds. The expression level of the type I collagen α1 chain mRNA was corrected with GAPDH and was expressed as a relative value when the expression level obtained in the absence of the test compound was defined as 100%.

[4] = test system: SD-line male rats; assay: Repeated administration toxicity test in rat (oral administration, two weeks); type: in vivo; conditions: 1000 mg/kg, 5 rats per group, 80a and 1b as sodium salts
Protocol: As test compounds, the compounds of Examples 80a, 122a, 139a, 1b, 16b, and 19b were used. Note that the compounds of Examples 80a and 1b were used in the forms of sodium salts.
Each test compound was suspended in a 0.5% methylcellulose solution or distilled water to prepare a 100 mg/mL suspension. The suspension of the test compound was orally administered (10 mL/kg, test compound: 1000 mg/kg) to SD-line male rats (6-week-old, 5 rats for each group).

[5] = side effect, clinical, Non Patent Document 3; cited from earlier work
[6] = 10 μmol/L test compound, WI-38 cells, TGF-β1 1 ng/mL, 24 hours, Table 4a
[7] = orally 10 mg/kg twice a day, 14th to 28th day, lung on 28th day, 23a, 1b, 7c as sodium salts, 122a, 143a as hydrochloric acid salts
[8] = 10 μmol/L test compound, WI-38 cells, TGF-β1 1 ng/mL, 24 hours, Table 4b

T1 sequence (P11712 whole entry): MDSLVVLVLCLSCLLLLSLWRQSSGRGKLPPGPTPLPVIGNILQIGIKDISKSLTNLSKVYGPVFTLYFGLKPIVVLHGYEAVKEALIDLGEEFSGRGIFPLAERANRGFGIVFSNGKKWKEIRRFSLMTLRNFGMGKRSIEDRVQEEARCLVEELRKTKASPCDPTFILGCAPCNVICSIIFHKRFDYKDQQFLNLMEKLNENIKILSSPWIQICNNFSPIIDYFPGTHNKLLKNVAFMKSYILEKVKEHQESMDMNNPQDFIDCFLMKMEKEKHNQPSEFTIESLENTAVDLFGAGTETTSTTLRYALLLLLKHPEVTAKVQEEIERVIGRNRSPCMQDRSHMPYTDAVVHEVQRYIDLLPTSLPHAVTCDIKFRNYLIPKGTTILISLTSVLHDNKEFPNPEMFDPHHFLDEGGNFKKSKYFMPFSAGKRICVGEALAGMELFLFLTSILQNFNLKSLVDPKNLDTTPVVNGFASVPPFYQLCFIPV

| Structure (SMILES) | IC50 [1] [µM] | inhibition at 10 µM [3, 6] [%] | inhibition in vivo at 10 mg/kg [2, 7] [%] | survival on the 14th day from the administration [4] | other results |
| --- | --- | --- | --- | --- | --- |
| CCN1CCN(Cc2ccc(O)c(C(=O)Nc3cc(-c4ccccc4)ccc3C(=O)O)c2)CC1 [Example 123a, 2-(5-((4-Ethylpiperazin-1-yl)methyl)-2-hydroxybenzamido)-4-phenylbenzoic acid dimethanesulfonate] | > 76.7 | – | – | – | – |
| CN1CCC(Oc2ccc(O)c(C(=O)Nc3cc(-c4ccccc4)ccc3C(=O)O)c2)CC1 [Example 108a, 2-(2-hydroxy-5-((1-methylpiperidin-4-yl)oxy)benzamido)-4-phenylbenzoic acid hydrochloride] | > 112 | 94 | – | – | inhibition in vivo at 10 mg/kg [2]: ≥ 30% |
| CCNc1ccccc1-c1ccc(C(=O)[O-])c(NC(=O)c2cncc(-c3ccccc3)c2)c1.[Na+] [16b, sodium 4-(2-(ethylamino)phenyl)-2-(5-phenylpyridine-3-carboxamido)benzoate] | – | – | ≥ 30 | all rats survived | inhibition at 10 µM [3, 8]: 84% |
| O=C(Nc1cc(-c2ccccc2)ccc1C(=O)O)c1cc(N2CCCCC2)ccc1O [Example 80a, 2-(2-hydroxy-5-(piperidin-1-yl)benzamido)-4-phenylbenzoic acid hydrochloride] | > 120 | – | – | all rats survived | inhibition in vivo at 10 mg/kg [2]: ≥ 30%; inhibition at 10 µM ([3]; WI-38, 24 h): 95% |
| CN1CCN(Cc2ccc(O)c(C(=O)Nc3cc(-c4ccccc4)ccc3C(=O)O)c2)CC1 [Example 122a, 2-(2-hydroxy-5-((4-methylpiperazin-1-yl)methyl)benzamido)-4-phenylbenzoic acid dimethanesulfonate] | – | 88 | ≥ 30 | all rats survived | – |
| O=C(Nc1cc(-c2ccoc2)ccc1C(=O)O)c1cncc(-c2ccccc2)c1 [57b, Sodium 4-(furan-3-yl)-2-(5-phenylpyridine-3-carboxamido)benzoate] | – | – | – | – | inhibition in vivo at 10 mg/kg [2]: ≥ 30%; inhibition at 10 µM ([3]; WI-38, 24 h): 84% |
| O=C(Nc1cc(-c2ccccc2)ccc1C(=O)O)c1cncc(-c2ccccc2)c1 [1b, 4-phenyl-2-(5-phenylpyridine-3-carboxamido)benzoic acid] | – | – | ≥ 30 | all rats survived | inhibition at 10 µM [3, 8]: 72% |
| O=C(Nc1cc(-c2ccccc2)ccc1C(=O)O)c1cc(N2CCOCC2)ccc1O [Example 83a, 2-(2-Hydroxy-5-(morpholin-4-yl)benzamido)-4-phenylbenzoic acid hydrochloride] | > 110 | 88 | ≥ 30 | – | – |
| Cc1ccc(=O)n(-c2ccccc2)c1 [pirfenidone, Pirfenidone] | – | – | – | – | photosensitivity in subjects [5]: 87.9% |
| O=C(Nc1cc(-c2ccccc2)ccc1C(=O)O)c1cc(-c2cccnc2)ccc1O [Example 23a, 2-(2-hydroxy-5-(pyridin-3-yl)benzamido)-4-phenylbenzoic acid] | – | 91 | ≥ 30 | – | – |
| O=C(Nc1cc(-c2ccco2)ccc1C(=O)[O-])c1cncc(-c2ccccc2)c1.[Na+] [19b, sodium 4-(furan-2-yl)-2-(5-phenylpyridine-3-carboxamido)benzoate] | – | – | ≥ 30 | all rats survived | inhibition at 10 µM [3, 8]: 90% |
| CCN1CCN(CCOc2ccc(O)c(C(=O)Nc3cc(-c4ccccc4)ccc3C(=O)O)c2)CC1 [Example 143a, 2-(5-(2-(4-ethylpiperazin-1-yl)ethoxy)-2-hydroxybenzamido)-4-phenylbenzoic acid dimethanesulfonate] | > 102 | 89 | ≥ 30 | – | – |
| CN1CCN(CCc2ccc(O)c(C(=O)Nc3cc(-c4ccccc4)ccc3C(=O)O)c2)CC1 [Example 117a, 2-(2-hydroxy-5-(2-(4-methylpiperazin-1-yl)ethyl)benzamido)-4-phenylbenzoic acid dimethanesulfonate] | > 109 | 90 | – | – | – |
| CN(C)C1CCN(Cc2ccc(O)c(C(=O)Nc3cc(-c4ccccc4)ccc3C(=O)O)c2)CC1 [Example 128a, 2-(5-((4-(Dimethylamino)piperidin-1-yl)methyl)-2-hydroxybenzamido)-4-phenylbenzoic acid dimethanesulfonate] | > 106 | – | – | – | – |
| CCCN1CCN(CCOc2ccc(O)c(C(=O)Nc3cc(-c4ccccc4)ccc3C(=O)O)c2)CC1 [183a, 2-(2-hydroxy-5-(2-(4-propylpiperazin-1-yl)ethoxy)benzamido)-4-phenylbenzoic acid dimethanesulfonate] | – | 81 | – | – | – |
| O=C(Nc1cc(Nc2ccccc2)ccc1C(=O)O)c1cncc(-c2ccccc2)c1 [61b, 4-anilino-2-(5-phenylpyridine-3-carboxamido)benzoic acid] | – | – | – | – | inhibition at 10 µM [3, 8]: 86% |
| CN1CCN(CCOc2ccc(O)c(C(=O)Nc3cc(-c4ccccc4)ccc3C(=O)O)c2)CC1 [Example 142a, 2-(2-hydroxy-5-(2-(4-methylpiperazin-1-yl)ethoxy)benzamido)-4-phenylbenzoic acid dimethanesulfonate] | > 105 | 90 | – | – | – |
| O=C(Nc1cc(-c2ccccc2)ccc1C(=O)O)c1cc(OCCN2CCOCC2)ccc1O [Example 139a, 2-(2-hydroxy-5-(2-(morpholin-4-yl)ethoxy)benzamido)-4-phenylbenzoic acid hydrochloride] | > 108 | – | – | all rats survived | inhibition at 10 µM ([3]; WI-38, 24 h): 85% |
| Nc1ccccc1-c1ccc(C(=O)O)c(NC(=O)c2cncc(-c3ccccc3)c2)c1 [27b, 4-(2-Aminophenyl)-2-(5-phenylpyridine-3-carboxamido)benzoic acid] | – | – | – | – | inhibition at 10 µM [3, 8]: 72% |
| O=C(Nc1cc(-c2ccccc2)ccc1C(=O)O)c1cc(-n2cccn2)ccc1O [Example 22a, 2-(2-hydroxy-5-(1H-pyrazol-1-yl)benzamido)-4-phenylbenzoic acid] | – | 97 | – | – | – |
